Like-named read-outs stand apart in the source and are kept apart here.
Tests used:
MDA-MB-468 = test: NCI-60 human cancer cell line panel, five dose screen; format: cell-based; conditions: NCI-60 five dose screen
Text: (§1) Biological evaluation. The synthesized epothilone analogues were submitted to the NCI for testing against the NCI-60 human cancer cell line panel (Shoemaker, 2006).

COLO 205 = test: as above; format: cell-based; conditions: NCI-60 five dose screen
Text: as §1

NCI-H23 = test: as above; format: cell-based; conditions: NCI-60 five dose screen
Text: as §1

MCF7 = test: as above; format: cell-based; conditions: NCI-60 five dose screen
Text: as §1

HS 578T = test: as above; format: cell-based; conditions: NCI-60 five dose screen
Text: as §1

HCT-116 = test: as above; format: cell-based; conditions: NCI-60 five dose screen
Text: as §1

HT29 = test: as above; format: cell-based; conditions: HT-29, NCI-60 five dose screen
Text: as §1

A498 = test: as above; format: cell-based; conditions: NCI-60 five dose screen
Text: as §1

OVCAR-3 = test: as above; format: cell-based; conditions: NCI-60 five dose screen
Text: as §1

CCRF-CEM = test: as above; format: cell-based; conditions: NCI-60 five dose screen
Text: as §1

U251 = test: as above; format: cell-based; conditions: U-251, NCI-60 five dose screen
Text: as §1

PC-3 = test: as above; format: cell-based; conditions: NCI-60 five dose screen
Text: as §1

LOX IMVI = test: as above; format: cell-based; conditions: NCI-60 five dose screen
Text: as §1

K-562 = test: as above; format: cell-based; conditions: K562, NCI-60 five dose screen
Text: as §1

SW-620 = test: as above; format: cell-based; conditions: NCI-60 five dose screen
Text: as §1

SR = test: as above; format: cell-based; conditions: NCI-60 five dose screen
Text: as §1

HOP-92 = test: as above; format: cell-based; conditions: NCI-60 five dose screen
Text: as §1

RXF 393 = test: as above; format: cell-based; conditions: NCI-60 five dose screen
Text: as §1

MDA-MB-435 = test: as above; format: cell-based; conditions: NCI-60 five dose screen
Text: as §1

NCI-H460 = test: as above; format: cell-based; conditions: NCI-60 five dose screen
Text: as §1

RPMI-8226 = test: as above; format: cell-based; conditions: NCI-60 five dose screen
Text: as §1

A549/ATCC = test: as above; format: cell-based; conditions: NCI-60 five dose screen
Text: as §1

HL-60(TB) = test: as above; format: cell-based; conditions: NCI-60 five dose screen
Text: as §1

M14 = test: as above; format: cell-based; conditions: NCI-60 five dose screen
Text: as §1

SF-539 = test: as above; format: cell-based; conditions: NCI-60 five dose screen
Text: as §1

HCT-15 = test: as above; format: cell-based; conditions: NCI-60 five dose screen
Text: as §1

SNB-75 = test: as above; format: cell-based; conditions: NCI-60 five dose screen
Text: as §1

SK-MEL-5 = test: as above; format: cell-based; conditions: NCI-60 five dose screen
Text: as §1

KM12 = test: as above; format: cell-based; conditions: NCI-60 five dose screen
Text: as §1

MOLT-4 = test: as above; format: cell-based; conditions: NCI-60 five dose screen
Text: as §1

tubulin = test: Induction/enhancement of tubulin assembly (Lin, et al., 1996); format: biochemical; conditions: 10 μM tubulin, 0.4M monosodium glutamate, 30 min at room temperature; Table 2; read-out: induction of tubulin assembly (EC50, μM ± SD)
MCF-7 = test: Cytotoxicity, standard NCI assay with sulforhodamine B, 96 h; conditions: Homo sapiens, MCF7, 96 h, read-out: cytotoxicity (GI50, nM ± SD) MCF-7
OVCAR-8 = test: as above; conditions: Homo sapiens, OVCAR-8, 96 h, read-out: cytotoxicity (GI50, nM ± SD) OVCAR-8

Structure (SMILES)	GI50 (MDA-MB-468) [nM]	GI50 (COLO 205) [nM]	GI50 (NCI-H23) [nM]	GI50 (MCF7) [nM]	GI50 (HS 578T) [nM]	GI50 (HCT-116) [nM]	GI50 (HT29) [nM]	GI50 (A498) [nM]	GI50 (OVCAR-3) [nM]	GI50 (CCRF-CEM) [nM]	GI50 (U251) [nM]	GI50 (PC-3) [nM]	GI50 (LOX IMVI) [nM]	GI50 (K-562) [nM]	GI50 (SW-620) [nM]	GI50 (RXF 393) [nM]	GI50 (MDA-MB-435) [nM]	GI50 (NCI-H460) [nM]	GI50 (RPMI-8226) [nM]	GI50 (A549/ATCC) [nM]	other results
C/C(=C\c1ccn(-c2ccc(N)cc2F)n1)[C@@H]1C[C@@H]2O[C@]2(C)CCC[C@H](C)[C@H](O)[C@@H](C)C(=O)C(C)(C)[C@@H](O)CC(=O)O1 [Compound 14]	20.9	18.2	24.2	14	37.2	17.1	18.4	80.2	17.6	13.6	36.2	25.8	23.1	20.7	23.6	30.6	8.35	20.8	19.6	37.6	GI50 (SR): 29.2 nM; GI50 (HOP-92; dash defined by footnote e, read-out: GI50 (symbol)): > 100 nM; GI50 (HL-60(TB)): 14.1 nM; GI50 (M14): 18.7 nM; GI50 (SF-539): 26.2 nM; GI50 (HCT-15): 22.6 nM; GI50 (SNB-75): 11.7 nM; GI50 (SK-MEL-5): 18 nM; GI50 (KM12): 17.7 nM; GI50 (MOLT-4): 28.3 nM; EC50 (tubulin): 19 ± 1 µM; GI50 (MCF-7): 14 ± 2 nM; GI50 (OVCAR-8): 38 ± 10 nM
C/C(=C\c1ccn(-c2ccccc2N)n1)[C@@H]1C[C@@H]2O[C@]2(C)CCC[C@H](C)[C@H](O)[C@@H](C)C(=O)C(C)(C)[C@@H](O)CC(=O)O1 [Compound 10]	23.4	20.4	35.8	17.7	31.6	18.3	18.8	18.8	18.8	22.6	30.8	34.3	31.3	24.4	24.5	39.6	9.56	20.3	17.8	34.5	GI50 (SR): 27.4 nM; GI50 (HOP-92; read-out: GI50): 80.7 nM; GI50 (HL-60(TB)): 17.2 nM; GI50 (M14): 18 nM; GI50 (SF-539): 15.8 nM; GI50 (HCT-15): 32.5 nM; GI50 (SNB-75): 16.4 nM; GI50 (SK-MEL-5): 21.9 nM; GI50 (KM12): 20.6 nM; GI50 (MOLT-4): 27.6 nM; EC50 (tubulin): 8 ± 1 µM; GI50 (MCF-7): 5.5 nM; GI50 (OVCAR-8): 23 ± 10 nM
C/C(=C\c1ccn(-c2ccc(N)cc2)n1)[C@@H]1C[C@@H]2O[C@]2(C)CCC[C@H](C)[C@H](O)[C@@H](C)C(=O)C(C)(C)[C@@H](O)CC(=O)O1 [Compound 8]	39.2	18.6	25.2	15.2	44	18.7	19.6	102	18.1	34.1	35.6	30.4	23.6	24.7	25	38.4	8.09	20.5	21.3	36.9	GI50 (SR): 30.3 nM; GI50 (HOP-92; read-out: GI50): 146 nM; GI50 (HL-60(TB)): 15.8 nM; GI50 (M14): 19.2 nM; GI50 (SF-539): 19 nM; GI50 (HCT-15): 26.7 nM; GI50 (SNB-75): 11.4 nM; GI50 (SK-MEL-5): 20 nM; GI50 (KM12): 19.2 nM; GI50 (MOLT-4): 38.9 nM; EC50 (tubulin): 15 ± 4 µM; GI50 (MCF-7): 10 nM; GI50 (OVCAR-8): 38 ± 10 nM
C/C(=C\c1cc(C(F)(F)F)n(-c2ccc(N)cc2)n1)[C@@H]1C[C@@H]2O[C@]2(C)CCC[C@H](C)[C@H](O)[C@@H](C)C(=O)C(C)(C)[C@@H](O)CC(=O)O1 [Compound 9]	23.1	14.7	88.5	3.65	36.4	5.31	5.29	66	15.8	47.6	38.1	32.2	25	15.7	5.4	40.7	2.08	6.45	11.1	48.8	GI50 (HOP-92; read-out: GI50): 183 nM; GI50 (HL-60(TB)): 7.88 nM; GI50 (M14): 13.7 nM; GI50 (SF-539): 24.8 nM; GI50 (HCT-15): 22 nM; GI50 (SK-MEL-5): 22.1 nM; GI50 (KM12): 5.25 nM; GI50 (MOLT-4): 48.1 nM; EC50 (tubulin): > 40 µM; GI50 (MCF-7): 900 nM; GI50 (OVCAR-8): 300 nM
